From patent EP1891948A1, “Treatment of neurological and neuropsychological disorders” (Probiodrug AG, priority 2000, dated 2002)

How the values were obtained:
WistarF/Han (WF) rats [1] = test: Response to novelty (open field test) after i.c.v. treatment; assay type: in vivo
Experimental: (§1) Animals. Male WistarF/Han (WF) rats (Central Animal Laboratory, Hannover Medical School, Hannover, Germany, see http://www.mh-hannover.de/institut/tierlabor/wf.htm for details), weighing 350-390g, were housed in a sound-proof, temperature controlled (24.0±0.5°C) room under specific pathogen free conditions with a 12/12h dark/light cycle (lights on at 07.00 with illumination level of 80 Lux). Food (Altromin lab chow pellets) and tap water were available ad libitum. Under ketamine/xylasine (100/5 mg/kg, i.p.) anesthesia, the rats were fixed in a Kopf stereotaxic frame and implanted with cannulae (Plastic One, Inc., Roanoke, VA, USA) above the lateral ventricle. All research and animal care procedures were approved by the Lower Saxony district government (Hannover, Germany) and followed principles described in the European Community's Council Directive of 24 November 1986 (86/609/EEC).
Surgery and i.c.v. application. For surgery, rats were anesthetized and prepared with i.c.v. cannulaes (coordinates: A:-0.7mm caudal, L:1.4mm lateral to bregma; and V:3.2mm ventral to the skull surface; tooth bar +3.0 above ear bars) using standard stereotaxic procedures as described in detail elsewhere (von Hörsten et al., 1998a,b,c). […]
Response to novelty (Open field test). […] Spontaneous activity during a single continuous test session of 15min was recorded using a video path analyzer system (E61-21 Video Path Analyser system, Coulboum instruments, PA, U.S.A.). […] Furthermore, the total incidence of fecal boli was counted after each session and the incidence and duration (sec) of grooming behavior was simultaneously recorded from a video monitor by a person blind to the treatment of the animals (von Hörsten et al., 1998c).
Statistical analysis. For statistical analysis, behavioral raw data from every test minute were analyzed by two-way analyses of variance (ANOVA) for repeated measures (factors: treatment and time as a repeated measurement). Data obtained as totals from a session were analyzed by one-way (factor: treatment) ANOVA. […]

WistarF/Han (WF) rats [2] = test: Elevated plus maze (EPM) test after i.c.v. treatment; assay type: in vivo; conditions: low dose (50pmol), Fig. 6
Experimental: as §1, with “(86/609/EEC). […]” for “(86/609/EEC).”
Elevated plus maze (EPM) testing. […] The following parameters were calculated: Total numbers of arm entries (TA); entries to closed arms (CA); entries to open arms (OA); percentage frequency of entries to open arms (%OA: OAx100/TA); total trial duration (TT): 300s; duration of stay in closed arms (closed time; CLT); percentage share of CLT in total arms-stay duration (CLTx100/AT); duration of stay in open arms (open time; OT) and percentage share of OT in total arm-stay duration (%OT: OTx100/AT). […]

## CCC(C)C(N)C(=O)N1CCSC1 (stereo not shown) [isoleucyl thiazolidine]
WistarF/Han (WF) rats [1]; Fig. 5
  dosage already effective on time spent close to the wall: 50 pmol
WistarF/Han (WF) rats [1]; sum of four consecutive minutes of open field testing, Fig. 5
  time spent close to the wall: dose-dependent reduction
WistarF/Han (WF) rats [1]; wide range of dosages (0.05nmol, 5nmol, 500nmol), 60 min before test, Fig. 4
  activity in the open field (distance traveled): no effect
WistarF/Han (WF) rats [2]
  percentage of time spent on the open arms of the maze: increased
